Like-named read-outs stand apart in the source and are kept apart here.

Series [1] has as its system HIV-1 replication in latently HIV-1 infected lymphocytic ACH-2 cells. It is filed as cell-based. To be noted: for Induction of HIV-1 replication by the agent alone, ACH-2 cells: data not shown.
In series [2] the test system is HIV-1 replication in latently HIV-1 infected monocytoid U1 cells. Format: cell-based.
Series [3] relates to HIV-1 LTR in Jurkat A1 cells. Format: cell-based.
In series [4] the test system is HDACs. The series can be described thus: HDAC class selectivity (HDACs inhibited). To be noted: Class 1 selective or NS (non-selective). It is filed as biochemical.
For series [5], the target named is IP HDAC4 (Homo sapiens, UniProt P56524). Format: biochemical. The method, then: (§1) Cell-Based Human HDAC1 and HDAC4 Assays. […] Then, 1000 micrograms of extracts were diluted in IP buffer up to 1 mL and pre-cleared by incubating with 20 microL of A/G plus Agarose (Santa Cruz) for 30 min to 1 h on a rocking table at 4° C. Supernatants were transferred into a new tube, and the antibodies (around 3 to 4 μg) were added and IP was allowed to proceed overnight at 4° C. on a rocking table. The antibodies used were HDAC1 (Abcam) and HDAC4 (Sigma). As the negative control, the same amount of protein extracts were immunoprecipitated with the corresponding purified IgG (Santa Cruz). On the next day, 20 microL of A/G and Agarose (Santa Cruz) were added to each IP, and incubation was continued for 2 h. The beads were recovered by brief centrifugation and washed with cold IP buffer several times. The samples were than washed twice in PBS and re-suspended in 20 microL of sterile PBS. The HDAC assay was carried out according to the supplier's instructions (Upstate). Briefly, samples immunoprecipitated with the HDAC4 and HDAC1 or with purified IgG were pooled separately to homogenise all samples. Then, 10 microL of the IP was incubated with a previously labelled ^3H-Histone H4 peptide linked with streptavidine agarose beads (Upstate). In detail, 120 000 CPM of the H4-^3H-acetyl-peptide was used for each tube and incubated in 1 HDAC buffer with 10 microL of the sample in the presence or absence of HDAC inhibitors with a final volume of 200 μL. Those samples were incubated overnight at 37° C. in slow rotation. On the next day, 50 μL of a quenching solution was added, and 100 microL of the samples were counted in duplicate after brief centrifugation in a scintillation counter.
Sequence of IP HDAC4 (P56524 whole entry): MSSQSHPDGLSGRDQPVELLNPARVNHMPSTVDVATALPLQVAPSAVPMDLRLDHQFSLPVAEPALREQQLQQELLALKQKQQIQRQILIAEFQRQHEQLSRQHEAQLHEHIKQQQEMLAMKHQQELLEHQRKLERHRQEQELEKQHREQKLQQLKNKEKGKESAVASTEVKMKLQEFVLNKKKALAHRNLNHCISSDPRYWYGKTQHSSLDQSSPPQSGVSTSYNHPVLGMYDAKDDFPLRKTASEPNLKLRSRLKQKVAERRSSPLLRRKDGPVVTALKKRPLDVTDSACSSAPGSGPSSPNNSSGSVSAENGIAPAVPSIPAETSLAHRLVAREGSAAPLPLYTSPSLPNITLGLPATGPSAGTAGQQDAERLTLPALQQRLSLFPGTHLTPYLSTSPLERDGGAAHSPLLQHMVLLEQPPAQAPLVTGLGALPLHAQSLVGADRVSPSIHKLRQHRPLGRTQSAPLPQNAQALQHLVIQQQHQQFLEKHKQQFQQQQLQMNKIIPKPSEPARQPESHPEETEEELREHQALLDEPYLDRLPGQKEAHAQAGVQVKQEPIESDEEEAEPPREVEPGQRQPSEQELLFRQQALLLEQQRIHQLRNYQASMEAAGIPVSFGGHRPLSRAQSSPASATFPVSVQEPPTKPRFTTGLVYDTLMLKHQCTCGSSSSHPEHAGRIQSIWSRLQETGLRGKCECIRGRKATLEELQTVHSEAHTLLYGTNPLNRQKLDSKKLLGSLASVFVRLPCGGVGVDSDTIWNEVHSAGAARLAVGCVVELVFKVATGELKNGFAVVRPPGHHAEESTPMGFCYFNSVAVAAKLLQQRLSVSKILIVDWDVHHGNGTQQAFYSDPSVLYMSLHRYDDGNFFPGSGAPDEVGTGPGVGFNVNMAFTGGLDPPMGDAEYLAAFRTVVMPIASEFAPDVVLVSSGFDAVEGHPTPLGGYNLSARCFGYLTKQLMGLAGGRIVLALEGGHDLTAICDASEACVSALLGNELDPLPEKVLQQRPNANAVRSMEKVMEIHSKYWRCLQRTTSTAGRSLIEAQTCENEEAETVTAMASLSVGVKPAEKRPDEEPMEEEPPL

The target in series [6] is Maize HD1-B (Zea mays, UniProt Q9ZTP8). The series can be described thus: Maize HD1-B enzyme inhibition in vitro. Format: biochemical. The protocol:
(§2) Maize HD2, HD1-B, and HD1-A Enzyme Inhibition in Vitro. Radioactively labelled chicken core histones were used as the enzyme substrate according to established procedures [referenced in: Mai et al., 2006]. The enzyme liberated tritiated acetic acid from the substrate, which was quantified by scintillation counting. The IC50 values are the results of triple determinations. A 50 μL sample of maize enzyme (at 30° C.) was incubated (30 min) with 10 microL of total [^3H]acetate-prelabelled chicken reticulocyte histones (2 mg/mL). The reaction was stopped by the addition of 36 microL of 1 M HCl/0.4 M acetate and 800 microL of ethyl acetate. After centrifugation (10 000 g, 5 min), an aliquot of 600 microL of the upper phase was counted for radioactivity in 3 mL of liquid scintillation cocktail. The compounds were tested at a starting concentration of 40 microM, and active substances were diluted further. TSA and SAHA were used as the reference compounds, and blank solvents were used as negative controls [Mai et al. 2006].

Series [7] addresses Maize HD1-A (Zea mays, UniProt Q7XAX9). The series can be described thus: Maize HD1-A enzyme inhibition in vitro. It is filed as biochemical. The method, then:
as §2

Series [8] addresses IP HDAC1 (Homo sapiens, UniProt Q13547). Kind of series: Human HDAC1 assay on immunoprecipitate (IP) from U937 cells. It is filed as biochemical. The method, then: as §1
The test system of series [9] is Non-infected H9 and U937, HIV-1 infected H9IIIB, ACH-2 and U1 cells. Kind of series: Selective killing, MTT cell viability, infected versus non-infected cells. It is filed as cell-based. Particulars: seven days. The text has this: Cell viability assay. Cell viability was quantitated using the highly standardised methyl tetrazolium (MTT) procedure (described in detail in: Savarino A, Calosso L, Piragino A, Martini C, Gennero L, Pescarmona G P, Pugliese A. Modulation of surface transferrin receptors in lymphoid cells de novo infected with human immunodeficiency virus type-1. Cell Biochem Funct. 1999 March; 17(1):47-55). Absorbance values were generated at a wavelength of 450 nm using 96-well ELISA readers and subtracted of the blank values using cell culture media in the absence of cells. Cell viability in the presence of the test compounds was expressed as a percentage of the cell viability of control untreated cell cultures. For testing of selective killing, Non-infected H9, and U937, and HIV-1 infected HIIIB, ACH-2, and U1 cells were incubated with the test compounds for seven days, and cell viability was measured as described above.

Series [10] has as its target mouse HDAC1 (Mus musculus, UniProt O09106). Kind of series: Mouse HDAC1 enzyme assay. It is filed as biochemical. The method, then:
Mouse HDAC1 Enzyme Assay. […] HDAC activity was determined using [^3H]acetate-prelabelled chicken reticulocyte histones as the substrate. Mouse HDAC1 (50 microL) was incubated with different concentrations of compounds for 15 min on ice, and 10 μL of total [^3H]acetate-prelabelled chicken reticulocyte histones (2 mg/mL) were added, resulting in a concentration of 41 microM. The mixture was incubated at 37° C. for 1 h. The reaction was stopped by the addition of 50 microL of 1 M HCl/0.4 M acetylacetate and 1 mL ethyl acetate. After centrifugation at 10 000 g for 5 min, an aliquot of 600 microL of the upper phase was counted for radioactivity in a 3 mL liquid scintillation cocktail [Mai et al., 2006].

The test system of series [11] is latent HIV-1. Particulars: cited from earlier work.
The subject of series [12] is HIV-1 LTR in quiescently infected Jurkat 8.4 cells. Kind of series: HIV-1 LTR-controlled GFP expression, flow cytometry, Jurkat clone 8.4. Format: cell-based. Particulars: 72 h, gated live cells.

Sequence of Maize HD1-A (Q7XAX9 entry or part of it): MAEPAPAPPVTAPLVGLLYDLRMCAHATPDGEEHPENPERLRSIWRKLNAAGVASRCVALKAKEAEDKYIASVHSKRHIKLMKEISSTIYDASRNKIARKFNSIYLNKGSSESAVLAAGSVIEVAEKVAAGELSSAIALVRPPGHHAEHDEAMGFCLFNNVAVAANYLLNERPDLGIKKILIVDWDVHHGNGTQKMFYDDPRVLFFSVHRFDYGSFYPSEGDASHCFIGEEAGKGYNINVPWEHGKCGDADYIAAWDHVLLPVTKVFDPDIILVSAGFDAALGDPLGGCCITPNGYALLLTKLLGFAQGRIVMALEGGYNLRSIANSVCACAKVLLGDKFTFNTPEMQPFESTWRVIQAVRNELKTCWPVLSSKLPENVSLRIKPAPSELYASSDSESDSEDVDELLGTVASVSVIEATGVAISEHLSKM
Sequence of IP HDAC1 (Q13547 whole entry): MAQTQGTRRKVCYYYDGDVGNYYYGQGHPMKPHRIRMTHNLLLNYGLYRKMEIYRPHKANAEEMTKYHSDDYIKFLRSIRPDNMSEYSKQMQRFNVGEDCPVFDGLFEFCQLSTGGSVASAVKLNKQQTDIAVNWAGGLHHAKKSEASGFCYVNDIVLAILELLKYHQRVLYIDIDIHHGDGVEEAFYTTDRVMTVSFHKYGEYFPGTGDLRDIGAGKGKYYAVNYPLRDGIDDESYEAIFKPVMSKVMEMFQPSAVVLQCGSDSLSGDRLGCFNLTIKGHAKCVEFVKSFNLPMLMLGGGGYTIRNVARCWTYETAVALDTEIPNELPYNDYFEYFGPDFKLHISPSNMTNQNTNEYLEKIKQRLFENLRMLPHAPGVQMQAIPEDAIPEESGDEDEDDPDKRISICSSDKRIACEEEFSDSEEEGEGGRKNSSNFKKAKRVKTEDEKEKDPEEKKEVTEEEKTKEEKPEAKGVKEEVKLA
Sequence of mouse HDAC1 (O09106 whole entry): as the sequence (Q13547 whole entry) above, with R8K, D399E, E424D counted along it
Sequence of Maize HD1-B (Q9ZTP8 entry or part of it): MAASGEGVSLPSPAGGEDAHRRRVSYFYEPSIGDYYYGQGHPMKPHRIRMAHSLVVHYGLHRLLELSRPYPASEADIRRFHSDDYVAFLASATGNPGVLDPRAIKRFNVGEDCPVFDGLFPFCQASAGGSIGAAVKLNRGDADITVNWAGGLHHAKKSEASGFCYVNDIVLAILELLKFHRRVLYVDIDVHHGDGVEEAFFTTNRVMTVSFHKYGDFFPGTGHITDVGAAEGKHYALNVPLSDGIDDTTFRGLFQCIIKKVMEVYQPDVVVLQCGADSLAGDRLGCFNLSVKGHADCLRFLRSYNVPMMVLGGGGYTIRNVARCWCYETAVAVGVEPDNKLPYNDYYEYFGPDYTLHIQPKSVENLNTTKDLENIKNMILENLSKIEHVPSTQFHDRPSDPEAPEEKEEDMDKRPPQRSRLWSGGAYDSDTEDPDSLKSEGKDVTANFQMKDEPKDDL

Take `CCCCS(=N)(=O)CCC(N)C(=O)O` (stereo not drawn) [BSO, buthionine sulfoximine]: the “Induction of HIV-1 replication by the agent alone, ACH-2 cells” value (from here on “Induction … ACH-2 cells”) in series [1] (concentrations up to 500 μM) is given as “had no effect”. Also, the “Induction … ACH-2 cells” value in [1] is on record as “did not significantly induce HIV-1 replication”. The “Induction of HIV-1 replication by the agent alone, U1 cells” value in series [2] (data not shown) is “did not significantly induce HIV-1 replication”. Besides, in series [3] (72 h), the “GFP expression in combination with HDACi (MS-275), Jurkat A1 cells” value is “recruited HDACi-insensitive cells into the responding cell population” and the “LTR-controlled GFP expression, Jurkat A1 cells” value is given as “induced LTR activation in a small proportion of cells”.
For `O=C([O-])CN(CC(=O)[O-])CC(=O)[O-].[Fe+3]` [FeNTA, iron nitriloacetate], in series [1], the “Induction … ACH-2 cells” value is “dose-dependently induced HIV-1 replication”.
By inhibition is commonly meant the share of the control response that was lost under treatment. A low value points to little suppression. What is called IC50 is the concentration that gives 50% inhibition. Low readings indicate greater potency in that assay, high ones weaker potency in that assay. Consider `O=C(/C=C/c1ccc(NC(=O)C(c2ccccc2)c2ccccc2)cc1)NO` [MC 1855], for which, in series [4], the HDACs inhibited result is given as “Class 1”. The figures for the inhibition at 5 µM in [5] and in [8] were 0% and 78.7%, respectively. In addition, the results for the IC50 in series [6], in [7] and in series [10] were 0.162 µM, 0.055 µM and 0.128 µM, respectively. For the same molecule, the “Selective killing of HIV-1 infected cells versus uninfected counterparts” value in series [9] was “selective killing of HIV-1-infected cells”.
As for `CC(C(=O)Nc1ccc(/C=C/C(=O)NO)cc1)c1ccccc1` (stereo not drawn) [MC 1857], the IC50 in [6] was 0.072 µM; in series [7] it was 0.08 µM; in series [10], 0.291 µM. The molecule also came in with an inhibition at 5 µM in [8] of 79.3%.
For `CCC(C(=O)Nc1ccc(/C=C/C(=O)NO)cc1)c1ccccc1` (stereo not drawn) [MC 1864], the inhibition at 5 µM in [5] turned out to be 60.4%; in [8], 55%. Also, the IC50 amounted to 0.089 µM in series [6], 0.064 µM in series [7] and 0.305 µM in series [10].
`O=C(/C=C/c1ccc(NC(=O)C(Cc2ccccc2)c2ccccc2)cc1)NO` (stereo not drawn) [MC 1895, 3-[4-(2,3-Diphenylpropionylamino)phenyl]-N-hydroxy-2-propenamide]: in series [4], the HDACs inhibited entry is “Class 1”. For the same molecule, the inhibition at 5 µM in series [5] was found to be 16.1%; in series [8] it was 72.5%. Further, the IC50 stood at 0.133 µM in series [6], 0.074 µM in [7] and 0.083 µM in series [10].
For `CCC(C(=O)Nc1ccc(/C=C/C(=O)NO)cc1)c1cccc2ccccc12` (stereo not drawn) [MC 2111], the HDACs inhibited entry in [4] is given as “Class 1”. The figures for the inhibition at 5 µM in series [5] and in series [8] were 0% and 73.6%, respectively. Also, the results for the half-maximal inhibitory concentration (IC50) in series [6], in series [7] and in [10] were 0.058 µM, 0.042 µM and 0.62 µM, respectively.
On to `CCC(C(=O)Nc1ccc(/C=C/C(=O)NO)cc1)c1ccc2ccccc2c1` (stereo not drawn) [MC 2113], for which the HDACs inhibited entry in series [4] is given as “Class 1”. Further, the inhibition at 5 µM in series [5] was 22.4%; in series [8], 64.9%. Moreover, the figures for the half-inhibitory concentration (IC50) in series [6], in series [7] and in [10] were 0.062 µM, 0.069 µM and 0.56 µM, respectively.
In the case of `CC(C)C(C(=O)Nc1ccc(C(=O)NO)cn1)c1ccccc1` (stereo not drawn) [MC 2195], the HDACs inhibited result in series [4] is on record as “Class 1”. The inhibition at 5 µM in [5] amounted to 93.1%; in series [8] it was 46.7%. Besides, the figures for the 50% inhibitory concentration (IC50) in [6], in series [7] and in series [10] were 0.011 µM, 0.008 µM and 0.069 µM, respectively.
With `Nc1ccccc1NC(=O)c1ccc(CNC(=O)OCc2cccnc2)cc1` [MS 275], the “Concentration range of activity in inducing HIV-1 escape from latency, ACH-2 cells” value in [1] (day 3, concentration-response 0.001-1 μM) is “nanomolar range”. For the same molecule, the “Combined HIV-1 promoting effect of HDACi with BSO, ACH-2 cells” value in series [1] (percentage-of-synergism graph, three days) is given as “synergistic effect”. Further, in series [2] (not shown), the “Concentration range of activity in inducing HIV-1 escape from latency, U1 cells” value is listed as “nanomolar range”. Moreover, the HDACs inhibited result in series [4] was “Class 1”. The same molecule came in with an inhibition at 5 µM in series [8] of 65.4%.
Consider `O=C(CCCCCCC(=O)Nc1ccccc1)NO` [SAHA, suberoylanilide hydroxamic acid], for which the “LTR-controlled GFP expression, Jurkat A1 cells” value in series [3] (72 h) is recorded as “induction of LTR-controlled expression of green-fluorescent protein (GFP)”.
As for `CCCC(CCC)C(=O)O` [VA, valproic acid], in series [11], the “EC50, HIV-1 escape from latency” value is given as “millimolar range”.
As to `N.N.[Cl][Pt][Cl]` [cisplatin], in series [11] (Spandidos et al., 1990), the “Concentration range activating quiescent HIV-1” value is recorded as “micromolar”. Moreover, in [3] (cell line models for HIV-1 latency), the “Concentration range activating latent HIV-1” value is “nanomolar range”.
As to arsenic trioxide, in [3] (72 h), the “LTR-controlled GFP expression, Jurkat A1 cells” value is reported as “increased in response to arsenic trioxide in a concentration-dependent manner”. In addition, the “LTR-controlled GFP expression, Jurkat 8.4 cells” value in series [12] is reported as “dose-dependent shift in fluorescence”.

Values taken from US8785493B2, “Treatment of retroviral reservoirs exploiting oxidative stress” (Istituto Superiore di Sanita, priority 2008, dated 2014).
